Results from paper PMC9271048, “Probing strigolactone perception mechanisms with rationally designed small-molecule agonists stimulating germination of root parasitic weeds” (Nature Communications, 2022).

system: PaKAI2s (5 KAI2 protein homologs in P. aegyptiaca); assay: YLG-based competition assay on KAI2 protein homologs of P. aegyptiaca; assay type: biochemical, Phelipanche aegyptiaca; conditions: KAI2C; YLG competition; Supplementary Fig. 27; read-out: IC50, replicate 1
From the text: In P. aegyptiaca, 5 KAI2s have been proposed as the SL receptors for the regulation of seed germination. […] The high sequence similarity may explain the consistency of these compounds in inducing germination in both S. hermonthica and P. aegyptiaca.
(§1) The excitation and emission wavelengths of YLG are 480 and 520 nm, respectively. We used a fluorescence spectrophotometer (CARY Eclipse) to detect the fluorescence intensity change of YLG during the enzymatic hydrolysis assay process. All the testing compounds and YLG were dissolved in DMSO and prepared as stock solutions just before use. […] The changes of fluorescence at 520 nm of each well were recorded every 1 min for 30 min. Using the reaction mixture without adding enzyme and tested compounds as the background control. After subtracting the background hydrolysis, a linear fluorescence increase in 8 min was used for further inspection. The IC50 values were determined via fitting relative inhibition percentages with the varying concentrations of compounds in Microsoft Excel.
Supplementary Fig. 27. Binding of compounds 4a, (R)- and (S)-4a, and 4g-i to the HTL proteins in S. hermonthica and KAI2 protein homologs in P. aegyptiaca. In the competitive inhibitory activity assay, YLG (3 µM) was used as the fluorogenic substrate. Error bar indicates SD (n = 3 biologically independent experiments).
(1 picture or pasted object on this page, not shown here)

Row | Compound | IC50
1 | CC1=CC(OC(=O)N2CCN(C(=O)COc3ccc(Br)cc3C)CC2)CC1=O (stereo not shown) [4g] | 53.3 µM

same assay, conditions: KAI2C; YLG competition; Supplementary Fig. 27; read-out: IC50, replicate 2

Row | Compound | IC50
2 | CC1=CC(OC(=O)N2CCN(C(=O)COc3ccc(Br)cc3C)CC2)CC1=O (stereo not shown) [4g] | 49.1 µM

same assay, conditions: KAI2C; YLG competition; Supplementary Fig. 27; read-out: IC50, replicate 3

Row | Compound | IC50
3 | CC1=CC(OC(=O)N2CCN(C(=O)COc3ccc(Br)cc3C)CC2)CC1=O (stereo not shown) [4g] | 43 µM

same assay, conditions: KAI2C; average of 3 replicates; Supplementary Fig. 27; read-out: IC50, average

Row | Compound | IC50
4 | CC1=CC(OC(=O)N2CCN(C(=O)COc3ccc(Br)cc3C)CC2)CC1=O (stereo not shown) [4g] | 48.5 µM

same assay, conditions: KAI2d1; YLG competition; Supplementary Fig. 27; read-out: IC50, replicate 1

Row | Compound | IC50
5 | CC1=CC(OC(=O)N2CCN(C(=O)COc3ccc(Br)cc3C)CC2)CC1=O (stereo not shown) [4g] | 27.1 µM

same assay, conditions: KAI2d1; YLG competition; Supplementary Fig. 27; read-out: IC50, replicate 2

Row | Compound | IC50
6 | CC1=CC(OC(=O)N2CCN(C(=O)COc3ccc(Br)cc3C)CC2)CC1=O (stereo not shown) [4g] | 24.4 µM

same assay, conditions: KAI2d1; YLG competition; Supplementary Fig. 27; read-out: IC50, replicate 3

Row | Compound | IC50
7 | CC1=CC(OC(=O)N2CCN(C(=O)COc3ccc(Br)cc3C)CC2)CC1=O (stereo not shown) [4g] | 23.2 µM

same assay, conditions: KAI2d1; average of 3 replicates; Supplementary Fig. 27; read-out: IC50, average

Row | Compound | IC50
8 | CC1=CC(OC(=O)N2CCN(C(=O)COc3ccc(Br)cc3C)CC2)CC1=O (stereo not shown) [4g] | 24.9 µM

same assay, conditions: KAI2d2; YLG competition; Supplementary Fig. 27; read-out: IC50, replicate 1

Row | Compound | IC50
9 | CC1=CC(OC(=O)N2CCN(C(=O)COc3ccc(Br)cc3C)CC2)CC1=O (stereo not shown) [4g] | 62.3 µM

same assay, conditions: KAI2d2; YLG competition; Supplementary Fig. 27; read-out: IC50, replicate 2

Row | Compound | IC50
10 | CC1=CC(OC(=O)N2CCN(C(=O)COc3ccc(Br)cc3C)CC2)CC1=O (stereo not shown) [4g] | 72.7 µM

same assay, conditions: KAI2d2; YLG competition; Supplementary Fig. 27; read-out: IC50, replicate 3

Row | Compound | IC50
11 | CC1=CC(OC(=O)N2CCN(C(=O)COc3ccc(Br)cc3C)CC2)CC1=O (stereo not shown) [4g] | 74.9 µM

same assay, conditions: KAI2d2; average of 3 replicates; Supplementary Fig. 27; read-out: IC50, average

Row | Compound | IC50
12 | CC1=CC(OC(=O)N2CCN(C(=O)COc3ccc(Br)cc3C)CC2)CC1=O (stereo not shown) [4g] | 70 µM

same assay, conditions: KAI2d3; YLG competition; Supplementary Fig. 27; read-out: IC50, replicate 1

Row | Compound | IC50
13 | CC1=CC(OC(=O)N2CCN(C(=O)COc3ccc(Br)cc3C)CC2)CC1=O (stereo not shown) [4g] | 57.1 µM

same assay, conditions: KAI2d3; YLG competition; Supplementary Fig. 27; read-out: IC50, replicate 2

Row | Compound | IC50
14 | CC1=CC(OC(=O)N2CCN(C(=O)COc3ccc(Br)cc3C)CC2)CC1=O (stereo not shown) [4g] | 36.6 µM

same assay, conditions: KAI2d3; YLG competition; Supplementary Fig. 27; read-out: IC50, replicate 3

Row | Compound | IC50
15 | CC1=CC(OC(=O)N2CCN(C(=O)COc3ccc(Br)cc3C)CC2)CC1=O (stereo not shown) [4g] | 53.9 µM

same assay, conditions: KAI2d3; average of 3 replicates; Supplementary Fig. 27; read-out: IC50, average

Row | Compound | IC50
16 | CC1=CC(OC(=O)N2CCN(C(=O)COc3ccc(Br)cc3C)CC2)CC1=O (stereo not shown) [4g] | 49.2 µM

same assay, conditions: KAI2d4; YLG competition; Supplementary Fig. 27; read-out: IC50, replicate 1

Row | Compound | IC50
17 | CC1=CC(OC(=O)N2CCN(C(=O)COc3ccc(Br)cc3C)CC2)CC1=O (stereo not shown) [4g] | 77.3 µM

same assay, conditions: KAI2d4; YLG competition; Supplementary Fig. 27; read-out: IC50, replicate 2

Row | Compound | IC50
18 | CC1=CC(OC(=O)N2CCN(C(=O)COc3ccc(Br)cc3C)CC2)CC1=O (stereo not shown) [4g] | 85.3 µM

same assay, conditions: KAI2d4; YLG competition; Supplementary Fig. 27; read-out: IC50, replicate 3

Row | Compound | IC50
19 | CC1=CC(OC(=O)N2CCN(C(=O)COc3ccc(Br)cc3C)CC2)CC1=O (stereo not shown) [4g] | 76.1 µM

same assay, conditions: KAI2d4; average of 3 replicates; Supplementary Fig. 27; read-out: IC50, average

Row | Compound | IC50
20 | CC1=CC(OC(=O)N2CCN(C(=O)COc3ccc(Br)cc3C)CC2)CC1=O (stereo not shown) [4g] | 79.6 µM

molecular target: T1, ShHTL7 (Striga hermonthica, UniProt A0A0M3PNA2); assay: Competitive inhibition of ShHTL7 with Yoshimulactone Green (YLG) as substrate; assay type: biochemical; conditions: ShHTL7; YLG competition; Supplementary Fig. 27; read-out: IC50, replicate 1
T1 sequence (A0A0M3PNA2 entry or part of it): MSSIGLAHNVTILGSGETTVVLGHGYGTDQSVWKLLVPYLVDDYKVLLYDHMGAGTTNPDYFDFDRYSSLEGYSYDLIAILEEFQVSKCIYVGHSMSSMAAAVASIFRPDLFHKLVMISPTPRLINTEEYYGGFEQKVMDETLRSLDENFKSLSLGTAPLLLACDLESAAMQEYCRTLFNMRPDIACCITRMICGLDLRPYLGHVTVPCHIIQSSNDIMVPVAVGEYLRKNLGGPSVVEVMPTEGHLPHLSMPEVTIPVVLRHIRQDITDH
Experimental: Based on the structural feature of the lead compound 2h, we selected three regions to perform further modification (Supplementary Fig. 6), to try to further improve bioactivity. Insertion of a carbonyl group between the bicyclo[2.2.1]hept-5-en-2-yl group and the piperazine ring was detrimental to binding affinity (Supplementary Fig. 6, region A). Removal of an oxygen atom in region B was found unfavorable to binding affinity as well. Therefore, we focused on modifying the benzene ring (region C) for 2h. A series of compounds with different groups at region C was synthesized (Supplementary Scheme 1). […] As SPR just measures the binding ability, another independent assay by using Yoshimulactone Green (YLG) as the fluorescent substrate was performed to determine the half-maximal inhibitory concentration (IC50) of these compounds against ShHTL7[22].
as §1

Row | Compound | IC50
21 | CC1=CC(OC(=O)N2CCN(C(=O)COc3ccc(Br)cc3C)CC2)CC1=O (stereo not shown) [4g] | 3.08 µM

same assay, conditions: ShHTL7; YLG competition; Supplementary Fig. 27; read-out: IC50, replicate 2

Row | Compound | IC50
22 | CC1=CC(OC(=O)N2CCN(C(=O)COc3ccc(Br)cc3C)CC2)CC1=O (stereo not shown) [4g] | 1.61 µM

same assay, conditions: ShHTL7; YLG competition; Supplementary Fig. 27; read-out: IC50, replicate 3

Row | Compound | IC50
23 | CC1=CC(OC(=O)N2CCN(C(=O)COc3ccc(Br)cc3C)CC2)CC1=O (stereo not shown) [4g] | 1.97 µM

same assay, conditions: wild-type ShHTL7; average of 3; source data of Fig. 2a,b, Supplementary Figs. 8a, 9a, 20b; read-out: IC50, competitive ShHTL7 inhibition (YLG), source data average

Row | Compound | IC50
24 | CC1=CC(OC(=O)N2CCN(C(=O)COc3ccc(Br)cc3C)CC2)CC1=O (stereo not shown) [4g] | 2.22 µM

molecular target: T1, ShHTL7; assay: biochemical; assay type: binding; conditions: not given
Experimental: We used a sensitive, high-throughput Surface plasmon resonance (SPR) method to examine the binding affinities of the 51 candidates to the recombinant ShHTL7 protein, which was immobilized on the CM5 sensor chip. rac-GR24 was used as a positive control.
The interactions of small molecules with recombinant ShHTL7 were evaluated using the Biacore T200 system (GE Healthcare, USA) at 25 °C[47]. The purified ShHTL7 protein was immobilized on a CM5 sensor chip using the standard amine coupling procedure. […] PBS-P (10 mM phosphate buffer, 2.7 mM KCl, 137 mM NaCl, 0.05% Surfactant P20) containing 0.5% DMSO was used as the running buffer. For the screening experiments, candidates with different structures at 50 μM in the running buffer were injected individually at a flow rate of 30 μL min^−1. For binding affinity studies, compounds with different concentrations in running buffer were used. During the experiments, both the contact and dissociation times were set as 1 min. Data analysis was performed using the Biacore Evaluation Software (T200 Version 2.0). The affinity values (KD) were obtained by the kinetics analysis or the steady-state affinity method.

Row | Compound | Kd
25 | CC1=CC(OC(=O)N2CCN(C(=O)COc3ccc(Br)cc3C)CC2)CC1=O (stereo not shown) [4g] | 34.8 ± 3.9 µM
